Test results from patent publication US5814640A, “Method of treating gastrointestinal malignancies” (Montefiore Medical Center, priority 1997, dated 1998).

Tests used:
SW480 = experiment: Cytokinetic studies (cell cycle distribution by flow cytometry), SW480; assay type: cell-based, human
Procedure: Cells were cultured in RPMI 1640 with 10% fetal calf serum.
The DNA content of propidium-iodide stained nuclei was measured by flow cytometry. Cells in early exponential growth were incubated with or without drug, trypsinized and washed twice in PBS. A total of 10^6 viable cells, as determined by trypan blue exclusion, were permeabilized in sucrose-citrate-DMSO buffer as described by Vindelov et al., enucleated with trypsin and incubated with RNAse. Stripped nuclei were stained with propidium iodide at a final concentration of 2.5 ug/ml. Correlated dual parameter measurements of DNA content (from propidium-iodide red fluorescence excited at 488 nm) versus forward angle light scatter were performed using an EPICS C flow cytometer equipped with a 5W ultraviolet enhanced argon ion laser. Histograms consisting of a minimum of 10,000 nuclei were analyzed off-line with an EPICS C to RSX-11M conversion program (EPICOPY) and subsequently analyzed with ROMP and ROC3D programs rewritten for a DEC 11/73 computer. Cell cycle analysis for the compartmental boundaries and number of cells in the G1, S, and G2M phases was performed on ROMP-readable files using either a multiple gaussian fitting routine developed by Dean et al. or, for the perturbed histograms, a parametric method based on multiple broadened rectangles.

HT-29 = experiment: Cytokinetic studies (cell cycle distribution by flow cytometry), HT-29; assay type: cell-based, human
Procedure: Cells were cultured in RPMI 1640 with 10% fetal calf serum. Doubling times for these cell lines are 18 and 25 hours.
The DNA content of propidium-iodide stained nuclei was measured by flow cytometry. Cells in early exponential growth were incubated with or without drug, trypsinized and washed twice in PBS. A total of 10^6 viable cells, as determined by trypan blue exclusion, were permeabilized in sucrose-citrate-DMSO buffer as described by Vindelov et al., enucleated with trypsin and incubated with RNAse. Stripped nuclei were stained with propidium iodide at a final concentration of 2.5 ug/ml. Correlated dual parameter measurements of DNA content (from propidium-iodide red fluorescence excited at 488 nm) versus forward angle light scatter were performed using an EPICS C flow cytometer equipped with a 5W ultraviolet enhanced argon ion laser. Histograms consisting of a minimum of 10,000 nuclei were analyzed off-line with an EPICS C to RSX-11M conversion program (EPICOPY) and subsequently analyzed with ROMP and ROC3D programs rewritten for a DEC 11/73 computer. Cell cycle analysis for the compartmental boundaries and number of cells in the G1, S, and G2M phases was performed on ROMP-readable files using either a multiple gaussian fitting routine developed by Dean et al. or, for the perturbed histograms, a parametric method based on multiple broadened rectangles. […]

colorectal cancer = settings: cited from earlier work
[1] = 5-fluorouracil 50-500 uM, 24 hour incubation
[2] = alone or in combination, data not shown

## O=c1[nH]cc(F)c(=O)[nH]1 [5-fluorouracil]
SW480; [1]
  G2M compartment, dose response: nearly complete depletion of G2M
SW480; 24 hours, alone or in combination, data not shown
  accumulation of cells in S and G2M: concomitant decrease in the accumulation of cells in S and G2M at 24 hours
SW480; [2]
  block in G0/G1: prolongation of the block in G0/G1 to 24 hours
  effects on cell cycle distribution compared with HT-29: qualitatively identical effects
HT-29; [1]
  G2M compartment, dose response: nearly complete depletion of G2M
HT-29; time course, 5-fluorouracil 50 uM, alpha-2a-interferon 500 U/ml
  time of G2M depletion from start of incubation: ≤ 7 h
Colorectal cancer; compared with untreated controls
  median survival of treated patients: no better than that of untreated controls
Colorectal cancer; disseminated colorectal cancer
  remissions in patients: 15-35 % of patients
